Tests used:
hERG ion channel = hERG ion channel (Homo sapiens, UniProt Q12809); test: hERG K+ channel binding assay, displacement of [3H] dofetilide; conditions: for Ki (hERG) column, value given as % (1 μM): test concentration 1 μM
[1] = tested on: Sprague Dawley rats (mechanical allodynia after spinal nerve ligature); test: Chung model: mononeuropathic pain after spinal nerve ligature (SNL); type: in vivo; conditions: at 5 μg/kg

Sequence of hERG ion channel (Q12809 whole entry): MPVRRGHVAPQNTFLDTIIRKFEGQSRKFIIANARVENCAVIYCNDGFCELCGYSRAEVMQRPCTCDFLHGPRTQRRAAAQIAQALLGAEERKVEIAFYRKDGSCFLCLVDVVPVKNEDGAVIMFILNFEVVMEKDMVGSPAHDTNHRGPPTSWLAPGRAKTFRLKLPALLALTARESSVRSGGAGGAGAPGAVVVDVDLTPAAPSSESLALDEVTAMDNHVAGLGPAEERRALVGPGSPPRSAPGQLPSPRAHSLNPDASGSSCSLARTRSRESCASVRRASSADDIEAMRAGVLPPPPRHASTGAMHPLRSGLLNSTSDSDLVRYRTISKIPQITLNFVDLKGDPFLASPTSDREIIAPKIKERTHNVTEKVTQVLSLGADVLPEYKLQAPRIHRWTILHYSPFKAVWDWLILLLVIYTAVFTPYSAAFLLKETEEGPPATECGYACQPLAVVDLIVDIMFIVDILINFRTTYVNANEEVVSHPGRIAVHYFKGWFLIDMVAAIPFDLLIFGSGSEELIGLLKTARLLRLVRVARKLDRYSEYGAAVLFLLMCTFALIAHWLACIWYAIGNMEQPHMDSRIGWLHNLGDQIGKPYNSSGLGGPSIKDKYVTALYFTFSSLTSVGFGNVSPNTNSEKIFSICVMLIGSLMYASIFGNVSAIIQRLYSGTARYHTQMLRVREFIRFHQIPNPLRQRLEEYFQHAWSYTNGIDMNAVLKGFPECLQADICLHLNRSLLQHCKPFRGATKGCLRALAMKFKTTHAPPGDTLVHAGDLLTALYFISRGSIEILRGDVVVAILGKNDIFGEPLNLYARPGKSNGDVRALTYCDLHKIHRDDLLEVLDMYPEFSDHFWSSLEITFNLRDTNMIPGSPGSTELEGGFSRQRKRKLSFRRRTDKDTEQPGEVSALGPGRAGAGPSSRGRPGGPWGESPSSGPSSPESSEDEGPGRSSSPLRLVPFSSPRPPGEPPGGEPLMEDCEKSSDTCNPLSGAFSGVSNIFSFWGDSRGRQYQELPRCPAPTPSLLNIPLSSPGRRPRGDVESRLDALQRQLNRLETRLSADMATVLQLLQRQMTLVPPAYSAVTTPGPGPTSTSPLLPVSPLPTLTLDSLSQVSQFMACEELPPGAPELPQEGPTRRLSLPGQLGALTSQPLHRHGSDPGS

CN(C)C1(Cc2ccccc2)CCC2(CCCc3c2[nH]c2ccccc32)CC1 (stereo not drawn)
melting point: 174 to 186 °C

CN(C)C1(c2ccccc2)CCC2(CC1)NCCc1c2[nH]c2ccccc12 (single isomer, unassigned) [C-1, reference compound]
Ki (hERG) column, value given as % (1 μM) (hERG ion channel): 19% (1 μM)

CN(C)C1(c2ccccc2)CCC2(CC1)NCCc1c2[nH]c2ccccc12 (single isomer, unassigned) [C-2, reference compound]
Ki (hERG ion channel): 0.49 µM

CN(C)C1(c2ccccc2)CCC2(CCCc3c2[nH]c2ccccc32)CC1 (single isomer, unassigned) [Ex. 1, N,N-dimethyl-4′-phenyl-2,3,4,9-tetrahydrospiro[carbazole-1,1′-cyclohexane]-4′-amine]
Ki (hERG) column, value given as % (1 μM) (hERG ion channel): 13% (1 μM)

CN(C)C1(c2ccccc2)CCC2(CCCc3c2[nH]c2ccccc32)CC1 (single isomer, unassigned) [Ex. 2, N,N-dimethyl-4′-phenyl-2,3,4,9-tetrahydrospiro[carbazole-1,1′-cyclohexane]-4′-amine]
Ki (hERG) Mean [μM] (hERG ion channel): n.e. | SNL Rat, i.v. [1]: 19% MPE
